According to patent US5488037A, “Antithrombotic agents” (Eli Lilly and Company, priority 1994, dated 1996):

Experiments:
human thrombin = human thrombin (Homo sapiens, UniProt P00734); assay: Inhibition of the amidase activity of human thrombin (chromogenic substrate, Kass); assay type: biochemical; details: apparent association constant, mean over a range of test compound concentrations; purified human thrombin, substrate N-benzoyl-Phe-Val-Arg-p-nitroanilide, pH 7.4
Protocol: The assay is carried out by mixing 50 μl buffer (0.03M Tris, 0.15M NaCl, pH 7.4) with 25 μl of human thrombin solution (purified human thrombin, Enzyme Research Laboratories, South Bend, Ind., at 8 NIH units/ml) and 25 μl of test compound in a solvent (50% aqueous methanol (v:v)). Then 150 μl of an aqueous solution of the chromogenic substrate (at 0.25 mg/ml) are added and the rates of hydrolysis of the substrate are measured by monitoring the reactions at 405 nm for the release of p-nitroaniline. Standard curves are constructed by plotting free thrombin concentration against hydrolysis rate. The hydrolysis rates observed with test compounds are then converted to "free thrombin" values in the respective assays by use of the standard curves. The bound thrombin (bound to test compound) is calculated by subtracting the amount of free thrombin observed in each assay from the known initial amount of thrombin used in the assay. The amount of free inhibitor in each assay is calculated by subtracting the number of moles of bound thrombin from the number of moles of added inhibitor (test compound).
The Kass value is the hypothetical equilibrium constant for the reaction between thrombin and the test compound (I). [drawing 45]
Kass is calculated for a range of concentrations of test compounds and the mean value reported in units of liter per mole.

[1] = Index of bioavailability: plasma thrombin time (TT) time course after i.v. bolus and oral treatment of rats; assay type: in vivo, rat; details: dose-adjusted AUC of plasma TT, p.o. (fasted conscious rats) relative to i.v. bolus (anesthetized rats)
Text: Assays are done in duplicate and averaged.
Each sample population represents alternating sequential time points.

Compound	Human Thrombin Inhibition Levels, Kass × 10^6 (l/mole) (human thrombin)	Index of Bioavailability, Percent Relative Activity [1] [%]
CNC(CC(=O)N1CCC[C@H]1C(=O)N[C@H](C=O)CCCNC(=N)N)c1ccccc1.Cl.Cl.O.O (stereo partly drawn) [Example 1, N-methyl-3-amino-3-phenylpropionyl-L-Prolinyl-L-Arginine Aldehyde Dihydrochloride Dihydrate]	70 × 10^6 l/mole	28
CNC(CC(=O)N1CCC[C@H]1C(=O)N[C@H](C=O)CCCNC(=N)N)C1CCCCC1.CNC(CC(=O)N1CCC[C@H]1C(=O)N[C@H](C=O)CCCNC(=N)N)C1CCCCC1.Cl.Cl.Cl.Cl.O (stereo partly drawn) [Example 2, N-methyl-3-amino-3-cyclohexyl propionyl-L-Pro-L-Arg aldehyde dihydrochloride hemihydrate]	85 × 10^6 l/mole	19
CNCC(Cc1ccccc1)C(=O)N1CCC[C@H]1C(=O)N[C@H](C=O)CCCNC(=N)N.Cl.Cl.O (stereo partly drawn) [Example 3, N-Methyl-3-amino-2-benzylpropionyl-L-Pro-L-Arg Aldehyde Dihydrochloride Monohydrate]	12 × 10^6 l/mole	8
Cl.Cl.N=C(N)NCCC[C@@H](C=O)NC(=O)[C@@H]1CCCN1C(=O)CN1CCCCC1.O [Example 4, 2-(2-Piperidino)acetyl-L-Pro-L-Arginine Aldehyde Dihydrochloride Monohydrate]	1 × 10^6 l/mole	–
Cl.Cl.N=C(N)NCCC[C@@H](C=O)NC(=O)[C@@H]1CCCN1C(=O)C1CCCNC1.O (stereo partly drawn) [Example 5, 3-piperidinocarbonyl-L-Pro-L-Arginine Aldehyde Dihydrochloride Monohydrate]	2 × 10^6 l/mole	–
Cl.Cl.N=C(N)NCCC[C@@H](C=O)NC(=O)[C@@H]1CCCN1C(=O)C1CNC2CCCCC21.O (stereo partly drawn) [Example 6, 3-perhydroindolylcarbonyl-L-Pro-L-Arginine Aldehyde Dihydrochloride Monohydrate]	11 × 10^6 l/mole	–
CNC1CCCCC1C(=O)N1CCC[C@H]1C(=O)N[C@H](C=O)CCCNC(=N)N.Cl.Cl (stereo partly drawn) [Example 7, 2-(N-methyl)aminocyclohexyl-carbonyl-L-Pro-L-Arginine Aldehyde Dihydrochloride]	18.4 × 10^6 l/mole	–
Cl.Cl.Cl.N=C(N)NCCC[C@@H](C=O)NC(=O)[C@@H]1CCCN1C(=O)C1CCCCC1N.O (stereo partly drawn) [Example 8, 2-aminocyclohexylcarbonyl-L-Pro-L-Arginine Aldehyde Trihydrochloride Monohydrate]	39 × 10^6 l/mole	15
